Earlier results in PMC10090446, “Population pharmacokinetic analysis and dosing optimization of polymyxin B in critically ill patients” (Frontiers in Pharmacology, 2023).
Where two headings read alike, the source gives them in different places. Positions of bridges follow the written chain, without caps; N, C: chain ends. Non-standard residues stand in square brackets, D forms with d. Residues, ends and D or L forms follow the SMILES beside them. *: point of attachment. X1 = CC[C@H](C)CCCCC(=O)*; Dab = NCC[C@H](N)C(=O)O

Tests used:
[1] = used to convert fAUC/MIC target; ref Sandri et al., 2013; cited from earlier work
Method: Combined with population PK/PD feature parameters of antibiotics medicines, the PTA of PK/PD target for a dosing regimen at a predetermined minimum inhibitory concentration (MIC) was performed by Monte Carlo simulation. According to the 2019 International Consensus Guidelines ([Tsuji et al., 2019]), the target of fAUC/MIC for polymyxins was around 20, and the unbound fraction was determined to be 0.42 ([Sandri et al., 2013]). Thus AUC/MIC ≥ 50 was set as the efficacy target, as well as the MIC range was set at 0.25–4 mg L^-1 ([Satlin et al., 2020]). Additionally, considering the nephrotoxicity ...

[2] = cited from earlier work
Excerpt: TABLE 5 PPK studies of polymyxin B. | column: Estimation of population parameters || Since small samples were employed in this experiment, the non-parametric population modeling algorithm has theoretical advantages over parametric methods in detecting population PK/PD subgroups and outliers ([Goutelle et al., 2022]), so the non-parametric population modeling approach was chosen for modeling in this study. The values of CL (1.24 L h^-1) and V (16.64 L) (Table 3) in this study were in line with the ranges from previous reports, including the CL range (1.2–4.2 L h^-1) ([Sandri et al., 2013]) (Table 3) and the V range (5.63–34.4 L) (Table 5). However, the CL value was lower than t ...

[3] = Acutely ill patients, n = 52, two-compartment model, ref Miglis et al. (2018)
[4] = Critically ill patients with CVVH, n = 53, two-compartment model, ref Wang et al. (2022)
[5] = Critically ill patients with/without CRRT, n = 53, two-compartment model, ref Luo et al. (2022)
[6] = Critically ill patients, n = 24, two-compartment model, ref Sandri et al. (2013)
[7] = Health Volunteers, n = 20, three-compartment model, ref Liu et al. (2021)
[8] = Patients with MDR-GNB infections, n = 46, two-compartment model, ref Wang et al. (2020)
[9] = Patients with/without ECMO, n = 13, non-compartment model, ref Surovoy et al. (2022)

CC[C@H](C)CCCCC(=O)N[C@@H](CCN)C(=O)N[C@H](C(=O)N[C@@H](CCN)C(=O)N[C@H]1CCNC(=O)[C@H]([C@@H](C)O)NC(=O)[C@H](CCN)NC(=O)[C@H](CCN)NC(=O)[C@H](CC(C)C)NC(=O)[C@@H](Cc2ccccc2)NC(=O)[C@H](CCN)NC1=O)[C@@H](C)O [polymyxin B] (X1-[Dab]T[Dab][Dab][Dab][dF]L[Dab][Dab]T; lactam 4-C)
unbound fraction [1]: 0.42 | CL ([2]; Acutely ill patients, n = 52, 156 samples, two-compartment model, ref Miglis et al. (2018)): 2.63 L/h | Q [2, 3]: 2.32 L/h | V1 [2, 3]: 33.8 L | V2 [2, 3]: 78.2 L | CL ([2]; Clinical Samples, n = 43, 134 samples, one-compartment model, ref Kubin et al. (2018)): 2.37 L/h | V ([2]; Clinical Samples, n = 43, one-compartment model, ref Kubin et al. (2018)): 34.4 L | CLCRRT ([2]; Critically ill patients undergoing CRRT, n = 53 with/without CRRT, two-compartment model, ref Luo et al. (2022)): 1.95 L/h | CL ([2]; Critically ill patients with CVVH, n = 53, 275 samples, two-compartment model, ref Wang et al. (2022)): 1.95 L/h | CLCVVH [2, 4]: 4.52 L/h | Q [2, 4]: 2.28 L/h | V [2, 4]: 15.0 L | V2 [2, 4]: 6.54 L | CLwithoutCRRT ([2]; Critically ill patients with/without CRRT, n = 53, 189 samples, two-compartment model, ref Luo et al. (2022)): 1.5 L/h | Q [2, 5]: 1.34 L/h | V [2, 5]: 11.7 L | V2 [2, 5]: 17.9 L | CL ([2]; Critically ill patients, n = 24, 100 samples, two-compartment model, ref Sandri et al. (2013)): 1.66 L/h | Q [2, 6]: 8.76 L/h | V1 [2, 6]: 5.63 L | V2 [2, 6]: 19.8 L | CL [2, 7]: 1.62 L/h | Q2 [2, 7]: 8.4 L/h | Q3 [2, 7]: 0.384 L/h | V [2, 7]: 4.26 L | V2 [2, 7]: 3.66 L | V3 [2, 7]: 2.7 L | CL ([2]; Individuals with severe infections, n = 35, 139 samples, one-compartment model, ref Manchandani et al. (2018)): 2.5 L/h | V ([2]; Individuals with severe infections, n = 35, one-compartment model, ref Manchandani et al. (2018)): 34.3 L | CL ([2]; Patients with MDR-GNB infections, n = 46, 331 samples, two-compartment model, ref Wang et al. (2020)): 1.786 L/h | Q [2, 8]: 13.518 L/h | V1 [2, 8]: 6.218 L | V2 [2, 8]: 11.922 L | CL ([2]; Patients with TDM, n = 32, 112 samples, one-compartment model, ref Yu et al. (2021)): 1.59 L/h | V ([2]; Patients with TDM, n = 32, one-compartment model, ref Yu et al. (2021)): 20.5 L | CL [2, 9]: 1.16 L/h | V [2, 9]: 19.73 L | CL ([2]; Renal transplant patients, n = 50, 151 samples, one-compartment model, ref Li et al. (2021)): 1.18 L/h | V ([2]; Renal transplant patients, n = 50, one-compartment model, ref Li et al. (2021)): 12.09 L
